Measured values from US20250332265A1, “PSMA TARGETED CONJUGATE COMPOUNDS AND USES THEREOF” (priority 2021, published 2025).
Numbered stars: 1 amine (or outer) side, 2 acyl side, 3 side chain; on linkers, the order of the positions; unused ones are H or OH. Bridge positions count the residues as written; N and C are the ends. Square brackets hold non-standard residues; d marks the D form. Peptide text beside a SMILES is read from it. I, II: the chains in the order shown. * marks the point of attachment. Dolaproine = CO[C@@H]([C@@H]1CCCN1)[C@@H](C)C(=O)O; Dil = CC[C@H](C)[C@H](NC)[C@@H](CC(=O)O)OC; X2 = O=C1CC([*:2])C(=O)N1CCCCCC(=O)[*:1]; γGlu = O=C(O)[C@H](CCC(=O)[*:2])N[*:1]; PABC = O=C(OCc1ccc(N[*:1])cc1)[*:2]; X1 = C[C@@H](N*)[C@@H](O)c1ccccc1; Trx = NC[C@H]1CC[C@H](C(=O)O)CC1; Cit = NC(=O)NCCC[C@H](N)C(=O)O; NMeV = CN[C@H](C(=O)O)C(C)C; CO = O=C([*:1])[*:2]; Ahx = NCCCCCC(=O)O

Columns and labels:
[1] = tested on: metastatic PC3pip model (GFP labeled PC3pip cells); test: Metastatic survival study; type: in vivo, mice
Method: Male athymic nude mice were injected into the left ventricle of the heart with 1×10^5 GFP labeled PC3pip cells to generate bone metastasis. One week later mice received 160 nmol/kg PSMA-1-VcMMAE-Cy5.5 or PBS every 4 days with a total of 5 doses and the progression of disease was monitored by GFP imaging. Five mice were used in each group.

[2] = tested on: heterotopic PC3pip tumors; test: Heterotopic survival study; type: in vivo, mice
Excerpt: Male athymic nude mice were implanted subcutaneously with 1×10^6 of PC3pip cells under the right dorsum of the mice. When tumor size reached approximately 100 mm^3 (tumor volume=Length×width^2/2), mice received drugs through tail vein injection. […] Animals were weighed and tumor size measured every other day for 90 days. Cures were defined as no tumor present at end of the 90-day study. When tumors became too large or animals were moribund they were euthanized. Five mice were used in each group.

[3] = Maximum tolerated dose (MTD); type: in vivo, mice
Excerpt: Mice were monitored daily for 14 days.

orthotopic PC3pip tumors = test: Orthotopic survival study; type: in vivo, mice; settings: 3860 nmol/kg, five mice per group
Method: Surgical orthotopic tumor implantation was performed as previously reported. Tumor growth/size was monitored using Siemens Acuson S2000 ultrasound scanner. When the tumors were at the appropriate size (5 mm as measured by ultrasound, approximately 2 weeks) animals were given PSMA-1-VcMMAE, PSMA-1-VcMMAE-Cy5.5, or PBS every four days with a total of 5 doses. Tumors were monitored every other day by ultrasound. Each group had five mice.

[4] = tested on: PSMA-positive PC3pip cells; test: In vitro cytotoxicity assay (CCK-8), PC3pip; type: cell-based, human
Method: (§1) Cells (1,000/well) were seeded in 96-well culture plates the day before treatment. Cells were incubated with various concentrations of drugs for 72 hours and cell viability evaluated by CCK-8 (Dojindo). The concentration required to reach 50% of cell proliferation was determined (IC50) by GraphPad Prism 3.0.

[5] = In vitro cytotoxicity assay (CCK-8), PC3pip; type: cell-based, human; settings: 72 hours incubation
Method: as §1

[6] = tested on: PSMA-negative PC3flu cells; test: In vitro cytotoxicity assay (CCK-8), PC3flu; type: cell-based, human
Method: as §1

[7] = In vitro cytotoxicity assay (CCK-8), PC3flu; type: cell-based, human; settings: 72 hours incubation, CCK-8; read-out: IC50 cytotoxicity, PC3flu cells
Method: as §1

[8] = Stability of conjugates incubated with PBS, Example 1; type: physicochemical; settings: without enzyme
Method: To investigate if PSMA-targeted drug conjugates were cleavable by cathepsin B, the two conjugates were incubated with or without the enzyme and chromatographed by HPLC. When the conjugates were incubated with PBS, both PSMA-1-VcMMAE-Cy5.5 and PSMA-1-McMMAE-Cy5.5 were stable (FIG. 1D).

[9] = tested on: α-tubulin in PC3pip and PC3flu cells; test: Immunofluorescence analysis of alpha-tubulin; type: cell-based, human; settings: 5 nM, 24 hours
Method: Cells on coverslips at about 70% confluency were incubated with 5 nM of MMAE, PSMA-1-VcMMAE-Cy5.5 or PSMA-1-McMMAE-Cy5.5 for 24 hours. Cells were washed and fixed with 4% paraformaldehyde for 10 minutes, permeabilized with 0.1% Triton™ X-100 for 10 minutes, and blocked with 1% BSA for 1 hour at room temperature. Alpha-tubulin (B5-1-2) Alexa Fluor 488 Mouse Monoclonal Antibody (Invitrogen) was then added at 2 μg/mL in 0.1% BSA and incubated for 3 hours at room temperature. Cells were counterstained with DAPI, mounted with Fluor-Mount aqueous mounting solution, and observed under Leica DM4000B fluorescence microscopy at 40×.

[10] = tested on: PSMA receptor expressed on the PC3pip cells; test: In vitro cellular uptake studies, Example 1; type: cell-based, human; settings: 50 nM, 4 hours
Method: PC3pip and PC3flu cells were seeded in p-Slide 8-Well Chamber Slide (ibidi GmbH) at 2,000 cells/well. When cells grew to 70% confluency, PSMA-1-VcMMAE-Cy5.5 or PSMA-1-McMMAE-Cy5.5 conjugations were added at 50 nM and incubated at 37° C. for 4 hours. Cells were washed with PBS and stained with DAPI and LysoOrange (Abcam) for 30 minutes at 37° and 5% CO2, after which they were washed again with PBS and filled with fresh medium. Selectivity was determined by including 20-fold excess of the PSMA-1 ligand. The uptake and localization of the drug conjugates were visualized under a Leica HyVolution SP8 confocal microscope at 40×.

human liver cathepsin B = target: T1, human liver cathepsin B (Homo sapiens, UniProt P07858); test: Enzymatic cleavage by cathepsin B, Example 1; type: in vitro ADME; settings: 2 μM conjugate, 37° C., HPLC
T1 construct: purchased Anthens Research and Technology; host or cells: human liver (tissue-derived enzyme)
Method: PSMA-1-VcMMAE-Cy5.5 or PSMA-1-McMMAE-Cy5.5 was added to 500 μL of activated human liver cathepsin B (Anthens Research and Technology) solution to a final concentration of 2 μM and incubated at 37° C. At different time intervals, 40 µL of the solution was taken out into tubes loaded with 1 μL of 1 mM E64 protease inhibitor. The mixture was vortexed and then stored at −80° C. for future HPLC analysis to assess degradation of PSMA-1-VcMMAE-Cy5.5 or PSMA-1-McMMAE-Cy5.5. Studies were performed in triplicate.

PC3pip and PC3flu tumors = test: In vivo NIR imaging studies, Example 1; parameters: species or system mice; settings: 40 nmol/kg i.v., fluorescence imaging
Method: Under guidelines of the animal care and use committee at Case Western Reserve University (IACUC #150033) 6 to 8-week old male Balb/cathymic nude mice were implanted subcutaneously with 1×10^6 of PC3flu and PC3pip on the left and right dorsum respectively. Mice received 40 nmol/kg of PSMA-1-VcMMAE-Cy5.5 or PSMA-1-McMMAE-Cy5.5 in PBS via tail vein injection when tumors reached 10 mm in diameter. Fluorescence imaging was performed using the Maestro In Vivo Imaging system (Perkin-Elmer). Multispectral images were unmixed into their component spectra (PSMA probes, autofluorescence, and background) to quantitate the average fluorescence intensity associated with the tumors using regions of interest (ROIs) around the tumors.

Question: For `CC[C@H](C)[C@@H]([C@@H](CC(=O)N1CCC[C@H]1[C@H](OC)[C@@H](C)C(=O)N[C@H](C)[C@@H](O)c1ccccc1)OC)N(C)C(=O)[C@@H](NC(=O)[C@H](C(C)C)N(C)C(=O)OCc1ccc(NC(=O)[C@H](CCCNC(N)=O)NC(=O)[C@@H](NC(=O)CCCCCN2C(=O)CC(SC[C@H](NC(=O)[C@H](CCC(=O)O)NC(=O)[C@H](CCC(=O)O)NC(=O)[C@H](CCC(=O)O)NC(=O)CCCCCNC(=O)[C@H]3CC[C@H](CNC(=O)CC[C@H](NC(=O)N[C@@H](CCC(=O)O)C(=O)O)C(=O)O)CC3)C(=O)NCCCCCC(=O)N[C@@H](CCCCN)C(N)=O)C2=O)C(C)C)cc1)C(C)C` (stereo partly drawn) [PSMA-1-VcMMAE] (I: V[Cit][PABC][NMeV]V[Dil][Dolaproine]-X1 / II: {Glu-CO-γGlu-Trx-Ahx}-EEEC[Ahx]K-NH2; linker I:N-II:4 via X2), which “effect on survival and body weight, words” value [1] is on record?
Answer: Its value is “prolong animal survival time with no body weight loss”.

Question: And the “inhibition of PC3pip versus PC3flu tumor growth” value ([2]; 955 nmol/kg)?
Answer: The value was “significantly more effective at inhibiting PSMA-positive PC3pip tumor growth than PSMA-negative PC3flu tumor growth”.

Question: And the “cure (tumor free at 90 days)” value ([2]; 3820 nmol/kg i.v. every 4 days, 5 doses)?
Answer: The value was 60%.

Question: What about the “tumor growth when given every 7 days” value ([2]; dosing every 7 days) of the same compound?
Answer: Its value is “greatly inhibited tumor growth”.

Question: And the body weight loss ([2]; even at the highest dose tested (3820 nmol/kg))?
Answer: The body weight loss was “No body weight loss”.

Question: And the “dose at which tumor growth inhibition starts” value ([2]; mouse, in vivo)?
Answer: Its value is 191 nmol/kg.

Question: And the “therapeutic index (TI)” value ([3]; MTD / lowest effective dose)?
Answer: Its value is 40.

Question: And the MTD ([3]; mouse, in vivo, iv, single dose i.v., tumor-free athymic nude mice)?
Answer: The MTD was 7.64 µmol/kg.

Question: What about the “MTD relative to MMAE” value ([3]; single dose i.v.) of the same compound?
Answer: Its value is “more than 10 fold”.

Question: What about the tumor free mice (orthotopic PC3pip tumors) of the same compound?
Answer: The tumor free mice was 1.

Question: And the “ratio of IC50's between PC3pip and PC3flu cells” value ([4]; 72 hours incubation)?
Answer: The value was 48.2.

Question: What about the “effect of protease inhibitor E64 on cell killing” value ([4]; co-incubation with 50 μM E64) of the same compound?
Answer: Its value is “susceptible to E64 protease inhibition”.

Question: And the “increase of IC50 on removal of the Cy5.5 moiety, PC3pip cells” value ([4]; versus PSMA-1-VcMMAE-Cy5.5)?
Answer: The value was 6.2 fold.

Question: And the IC50 ([5]; CCK-8, read-out: IC50 cytotoxicity, PC3pip cells)?
Answer: The IC50 was 4.64 nM.

Question: What about the selectivity ratio ([5]; read-out: selectivity, differential cytotoxicity between PC3pip and PC3flu cells) of the same compound?
Answer: Its selectivity ratio is 48.

Question: And the “increase of IC50 on removal of the Cy5.5 moiety, PC3flu cells” value ([6]; versus PSMA-1-VcMMAE-Cy5.5)?
Answer: Its value is 11.1 fold.

Question: And the IC50 [7]?
Answer: The IC50 was 222 nM.

Question: Which results are given for `CC[C@H](C)[C@@H]([C@@H](CC(=O)N1CCC[C@H]1[C@H](OC)[C@@H](C)C(=O)N[C@H](C)[C@@H](O)c1ccccc1)OC)N(C)C(=O)[C@@H](NC(=O)[C@H](C(C)C)N(C)C(=O)CCCCCN1C(=O)CC(SC[C@H](NC(=O)[C@H](CCC(=O)O)NC(=O)[C@H](CCC(=O)O)NC(=O)[C@H](CCC(=O)O)NC(=O)CCCCCNC(=O)[C@H]2CC[C@H](CNC(=O)CC[C@H](NC(=O)N[C@@H](CCC(=O)O)C(=O)O)C(=O)O)CC2)C(=O)NCCCCCC(=O)N[C@@H](CCCCNC(=O)CCCCC[N+]2=C(/C=C/C=C/C=C3/N(C)c4ccc5ccccc5c4C3(C)C)C(C)(C)c3c2ccc2ccccc32)C(N)=O)C1=O)C(C)C` (stereo partly drawn) [PSMA-1-McMMAE-Cy5.5]?
Answer: stability when incubated with PBS [8]: stable; disruption of α-tubulin network [9]: no obvious disruption of tubulin; cellular binding and uptake, competition with PSMA-1 ligand [10]: selective and specific for the PSMA receptor; cleavage by cathepsin B (human liver cathepsin B): remained intact; IC50 cytotoxicity, PC3pip cells ([4]; 72 hours incubation, CCK-8): no IC50 values could be obtained; time of peak uptake in PC3pip tumors (PC3pip and PC3flu tumors): 24 h; IC50 cytotoxicity, PC3flu cells ([6]; 72 hours incubation, CCK-8): no IC50 values could be obtained
